Patent US20170233413A1, “SUBSTITUTED ANNULATED PYRIMIDINES AND USE THEREOF” (Bayer Pharma Aktiengesellschaft, priority 2014, published 2017)

Tests used:
[1] = target: T1, recombinant guanylate cyclase reporter cell line (Rattus norvegicus, UniProt P19686+P20595); assay: Effect on a recombinant guanylate cyclase reporter cell line; format: cell-based; conditions: MEC = minimum effective concentration; in some cases means of individual determinations
T1 construct: expressed in transfected cells
T1 sequence (P19686 1-690): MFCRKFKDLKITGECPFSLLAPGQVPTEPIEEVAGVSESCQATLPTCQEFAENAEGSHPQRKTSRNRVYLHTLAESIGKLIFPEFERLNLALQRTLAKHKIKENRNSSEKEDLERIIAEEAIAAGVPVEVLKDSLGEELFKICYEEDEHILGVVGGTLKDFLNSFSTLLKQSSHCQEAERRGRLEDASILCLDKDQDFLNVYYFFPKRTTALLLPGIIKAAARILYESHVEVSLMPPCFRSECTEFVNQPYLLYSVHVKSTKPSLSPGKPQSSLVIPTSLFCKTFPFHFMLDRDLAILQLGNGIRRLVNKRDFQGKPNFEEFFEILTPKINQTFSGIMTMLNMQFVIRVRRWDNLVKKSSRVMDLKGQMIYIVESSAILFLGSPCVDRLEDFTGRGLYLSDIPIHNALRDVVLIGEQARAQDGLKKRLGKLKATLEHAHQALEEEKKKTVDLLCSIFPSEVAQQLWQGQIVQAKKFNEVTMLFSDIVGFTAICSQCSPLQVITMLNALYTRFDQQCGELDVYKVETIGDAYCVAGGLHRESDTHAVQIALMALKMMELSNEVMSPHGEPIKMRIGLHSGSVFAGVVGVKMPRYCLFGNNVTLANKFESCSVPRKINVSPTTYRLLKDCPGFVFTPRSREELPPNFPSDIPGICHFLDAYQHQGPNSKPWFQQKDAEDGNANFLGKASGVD
T1 sequence (P20595 1-619): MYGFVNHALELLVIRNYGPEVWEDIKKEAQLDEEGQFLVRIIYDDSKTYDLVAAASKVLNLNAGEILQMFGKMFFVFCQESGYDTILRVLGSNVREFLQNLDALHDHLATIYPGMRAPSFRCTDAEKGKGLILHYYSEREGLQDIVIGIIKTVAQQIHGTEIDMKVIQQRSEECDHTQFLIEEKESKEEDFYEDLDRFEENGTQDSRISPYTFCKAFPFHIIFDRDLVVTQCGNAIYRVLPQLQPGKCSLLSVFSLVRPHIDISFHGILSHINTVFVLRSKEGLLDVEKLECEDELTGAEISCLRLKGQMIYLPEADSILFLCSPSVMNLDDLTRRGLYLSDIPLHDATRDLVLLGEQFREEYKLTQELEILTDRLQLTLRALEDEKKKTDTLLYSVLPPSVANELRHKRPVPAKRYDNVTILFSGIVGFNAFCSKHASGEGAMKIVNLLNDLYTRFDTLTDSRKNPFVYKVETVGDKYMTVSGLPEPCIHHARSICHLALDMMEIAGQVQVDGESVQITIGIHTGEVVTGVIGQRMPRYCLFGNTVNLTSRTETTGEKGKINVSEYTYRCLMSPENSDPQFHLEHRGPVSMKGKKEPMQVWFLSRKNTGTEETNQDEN
Description: B-2. Effect on a Recombinant Guanylate Cyclase Reporter Cell Line
The cellular activity of the compounds of the invention is determined using a recombinant guanylate cyclase reporter cell line, as described in F. Wunder et al., Anal. Biochem. 2005, 339, 104-112. Representative values (MEC=minimum effective concentration) for the compounds of the invention are shown in the table below (Table 1B; in some cases as means of individual determinations): […]

[2] = target: T2, human phosphodiesterase 5 (PDE 5) (Homo sapiens, UniProt O76074); assay: Inhibition of human phosphodiesterase 5 (PDE 5); format: biochemical; conditions: PDE 5 preparation from human platelets; in some cases means of individual determinations
T2 construct: PDE 5 preparations are obtained from human platelets by disruption; from tissue; host or cells: human platelets
Description: B-3. Inhibition of Human Phosphodiesterase 5 (PDE 5)
PDE 5 preparations are obtained from human platelets by disruption (Microfluidizer®, 800 bar, 3 passes), followed by centrifugation (75 000 g, 60 min, 4° C.) and ion exchange chromatography of the supernatant on a Mono Q 10/10 column (linear sodium chloride gradient, elution with a 0.2-0.3M solution of sodium chloride in buffer (20 mM Hepes pH 7.2, 2 mM magnesium chloride). Fractions having PDE 5 activity are combined (PDE 5 preparation) and stored at −80° C.
To determine their in vitro action on human PDE 5, the test substances are dissolved in 100% DMSO and serially diluted. Typically, dilution series (1:3) from 200 μM to 0.091 μM are prepared (resulting final concentrations in the test: 4 μM to 0.0018 μM). In each case 2 μl of the diluted substance solutions are placed into the wells of microtitre plates (Isoplate-96/200W; Perkin Elmer). Subsequently, 50 μl of a dilution of the above-described PDE 5 preparation are added. The dilution of the PDE 5 preparation is chosen such that during the later incubation less than 70% of the substrate are converted (typical dilution: 1:100; dilution buffer: 50 mM tris/hydrochloric acid pH 7.5, 8.3 mM magnesium chloride, 1.7 mM EDTA, 0.2% BSA). The substrate, [8-^3H] cyclic guanosine-3′,5′-monophosphate (1 μCi/μl; Perkin Elmer), is diluted 1:2000 with assay buffer (50 mM tris/hydrochloric acid pH 7.5, 8.3 mM magnesium chloride, 1.7 mM EDTA) to a concentration of 0.0005 μCi/μl. By addition of 50 μl (0.025 μCi) of the diluted substrate, the enzyme reaction is finally started. The test mixtures are incubated at room temperature for 60 min and the reaction is stopped by adding 25 μl of a suspension of 18 mg/ml yttrium scintillation proximity beads in water (phosphodiesterase beads for SPA assays, RPNQ 0150, Perkin Elmer). The microtitre plates are sealed with a film and left to stand at room temperature for 60 min. Subsequently, the plates are analysed for 30 s per well in a Microbeta scintillation counter (Perkin Elmer). IC50 values are determined using the graphic plot of the substance concentration against percentage PDE 5 inhibition.

Row | SMILES | MEC [1] [µM] | IC50 [2] [nM]
1 | CCC(=O)C(C)NC(=O)c1nc(-c2nn(Cc3ccccc3F)c3ncccc23)nc2c1C(C)(C)C(=O)N2 (racemic) [Example 66, rac-2-[1-(2-fluorobenzyl)-1H-pyrazolo[3,4-b]pyridin-3-yl]-5,5-dimethyl-6-oxo-N-(3-oxopentan-2-yl)-6,7-dihydro-5H-pyrrolo[2,3-d]pyrimidine-4-carboxamide] | 0.3 | 87
2 | CC(CC1CC1)NC(=O)c1nc(-c2nn(Cc3ccccc3F)c3ncccc23)nc2c1C(C)(C)C(=O)N2 (racemic) [Example 68, rac-N-(1-cyclopropylpropan-2-yl)-2-[1-(2-fluorobenzyl)-1H-pyrazolo[3,4-b]pyridin-3-yl]-5,5-dimethyl-6-oxo-6,7-dihydro-5H-pyrrolo[2,3-d]pyrimidine-4-carboxamide] | 0.1 | 13
3 | CC1(C)C(=O)Nc2nc(-c3nn(Cc4ccccc4F)c4ncccc34)nc(C(=O)NC3CCOC3=O)c21 (racemic) [Example 78, rac-2-[1-(2-fluorobenzyl)-1H-pyrazolo[3,4-b]pyridin-3-yl]-5,5-dimethyl-6-oxo-N-(2-oxotetrahydrofuran-3-yl)-6,7-dihydro-5H-pyrrolo[2,3-d]pyrimidine-4-carboxamide] | 0.3 | 9.3
4 | CC1(C)C(=O)Nc2nc(-c3nn(Cc4ccccc4F)c4ncccc34)nc(C(=O)NCC3CCOC3)c21 (racemic) [Example 99, rac-2-[1-(2-fluorobenzyl)-1H-pyrazolo[3,4-b]pyridin-3-yl]-5,5-dimethyl-6-oxo-N-(tetrahydrofuran-3-ylmethyl)-6,7-dihydro-5H-pyrrolo[2,3-d]pyrimidine-4-carboxamide] | 0.3 | 31
5 | CC(NC(=O)c1nc(-c2nn(Cc3ccccc3F)c3ncccc23)nc2c1C(C)(C)C(=O)N2)C1CC1 (racemic) [Example 104, rac-N-(1-cyclopropylethyl)-2-[1-(2-fluorobenzyl)-1H-pyrazolo[3,4-b]pyridin-3-yl]-5,5-dimethyl-6-oxo-6,7-dihydro-5H-pyrrolo[2,3-d]pyrimidine-4-carboxamide] | 0.1 | 11
6 | CC(CNC(=O)c1nc(-c2nn(Cc3ccccc3F)c3ncccc23)nc2c1C(C)(C)C(=O)N2)N(C)C (racemic) [Example 105, rac-N-[2-(dimethylamino)propyl]-2-[1-(2-fluorobenzyl)-1H-pyrazolo[3,4-b]pyridin-3-yl]-5,5-dimethyl-6-oxo-6,7-dihydro-5H-pyrrolo[2,3-d]pyrimidine-4-carboxamide] | 1 | 620
7 | CCC(C)CNC(=O)c1nc(-c2nn(Cc3ccccc3F)c3ncccc23)nc2c1C(C)(C)C(=O)N2 (racemic) [Example 125, rac-2-[1-(2-fluorobenzyl)-1H-pyrazolo[3,4-b]pyridin-3-yl]-5,5-dimethyl-N-(2-methylbutyl)-6-oxo-6,7-dihydro-5H-pyrrolo[2,3-d]pyrimidine-4-carboxamide] | 0.3 | 30
8 | CC1(C)C(=O)Nc2nc(-c3nn(Cc4ccccc4F)c4ncccc34)nc(C(=O)NCC3CCCO3)c21 (racemic) [Example 130, rac-2-[1-(2-fluorobenzyl)-1H-pyrazolo[3,4-b]pyridin-3-yl]-5,5-dimethyl-6-oxo-N-(tetrahydrofuran-2-ylmethyl)-6,7-dihydro-5H-pyrrolo[2,3-d]pyrimidine-4-carboxamide] | 0.3 | 28
9 | CC(C)C(C)NC(=O)c1nc(-c2nn(Cc3ccccc3F)c3ncccc23)nc2c1C(C)(C)C(=O)N2 (racemic) [Example 133, rac-2-[1-(2-fluorobenzyl)-1H-pyrazolo[3,4-b]pyridin-3-yl]-5,5-dimethyl-N-(3-methylbutan-2-yl)-6-oxo-6,7-dihydro-5H-pyrrolo[2,3-d]pyrimidine-4-carboxamide] | 1 | 30
10 | CC1(C)C(=O)Nc2nc(-c3nn(Cc4ccccc4F)c4ncccc34)nc(C(=O)NCC(N)CC(F)(F)F)c21 (racemic) [Example 136, rac-N-(2-amino-4,4,4-trifluorobutyl)-2-[1-(2-fluorobenzyl)-1H-pyrazolo[3,4-b]pyridin-3-yl]-5,5-dimethyl-6-oxo-6,7-dihydro-5H-pyrrolo[2,3-d]pyrimidine-4-carboxamide] | 1 | 42
11 | CC1(C)C(=O)Nc2nc(-c3nn(Cc4ccccc4F)c4ncc(F)cc34)nc(C(=O)N3CCCC3)c21 (single isomer, unassigned) [Example 54] | 0.03 | 1200
12 | CC(N)(CNC(=O)c1nc(-c2nn(Cc3ncccc3F)c3ncc(F)cc23)nc2c1C(C)(C)C(=O)N2)CC(F)F (single isomer, unassigned) [Example 56] | 3 | 120
13 | Cc1nc2c(cc1F)c(-c1nc3c(c(C(=O)NCC(C)(N)CC(F)F)n1)C(C)(C)C(=O)N3)nn2Cc1cccc(F)c1F (single isomer, unassigned) [Example 57] | 1 | 100
14 | Cc1nc2c(cc1F)c(-c1nc3c(c(C(=O)NCC(C)(N)CC(F)F)n1)C(C)(C)C(=O)N3)nn2Cc1cccc(F)c1F (single isomer, unassigned) [Example 58] | 1 | 86
15 | CC(N)(CNC(=O)c1nc(-c2nn(Cc3ncccc3F)c3ncc(F)cc23)nc2c1C(C)(C)C(=O)N2)CC(F)F (single isomer, unassigned; enantiomer a) [Example 55, ent-N-(2-Amino-4,4-difluoro-2-methylbutyl)-2-{5-fluoro-1-[(3-fluoropyridin-2-yl)methyl]-1H-pyrazolo[3,4-b]pyridin-3-yl}-5,5-dimethyl-6-oxo-6,7-dihydro-5H-pyrrolo[2,3-d]pyrimidine-4-carboxamide (enantiomer A)] | 3 | 190
